SMILES strings stand for the structures.

The results in this text go back to ChEMBL document CHEMBL1127400 (J Med Chem, 1994).

A short description of assay [1]: Tested for its ability to inhibit high affinity uptake of [3H]-dopamine into rat caudate-putamen tissue. It is filed as functional, tissue-based.
Assay [2] has as its target T1, Sodium-dependent dopamine transporter (Rattus norvegicus, UniProt P23977). As to the kind of experiment: Binding affinity was determined against cocaine binding site by measuring the ability of compound to displace bound [3H]dopamine from rat caudate-putamen tissue. It is filed as tissue-based.
Assay [3] concerns the target T1, Sodium-dependent dopamine transporter. Briefly: Tested for its ability to inhibit high affinity uptake of [3H]dopamine into rat caudate-putamen tissue. Format: tissue-based.
Assay [4] has the same target. Briefly: Binding affinity was determined against cocaine receptor by measuring the ability of compound to displace bound [3H]-3 from rat caudate-putamen tissue. Format: tissue-based.

T1 sequence (P23977 whole entry): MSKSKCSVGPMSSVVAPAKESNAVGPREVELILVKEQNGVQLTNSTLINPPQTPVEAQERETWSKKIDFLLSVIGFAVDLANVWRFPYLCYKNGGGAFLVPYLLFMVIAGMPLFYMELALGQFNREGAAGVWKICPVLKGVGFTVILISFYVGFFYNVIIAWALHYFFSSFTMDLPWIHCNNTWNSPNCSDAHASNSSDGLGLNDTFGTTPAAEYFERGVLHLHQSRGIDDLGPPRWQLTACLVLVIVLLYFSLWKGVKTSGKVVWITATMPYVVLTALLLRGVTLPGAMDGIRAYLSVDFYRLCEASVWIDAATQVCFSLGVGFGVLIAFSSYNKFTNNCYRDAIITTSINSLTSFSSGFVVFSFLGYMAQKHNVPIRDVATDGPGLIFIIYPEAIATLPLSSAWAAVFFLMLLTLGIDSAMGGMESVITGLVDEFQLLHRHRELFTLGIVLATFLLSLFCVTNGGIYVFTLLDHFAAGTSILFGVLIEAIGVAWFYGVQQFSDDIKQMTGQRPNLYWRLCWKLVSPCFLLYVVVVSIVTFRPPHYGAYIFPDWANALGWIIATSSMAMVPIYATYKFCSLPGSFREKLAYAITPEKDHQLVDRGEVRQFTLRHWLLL

As to `CN1C2CC[C@@H]1C[C@H](c1ccccc1)C2/C=C/CO` (stereo partly drawn), in assay [1], the midpoint of inhibition, the IC50, lay at 159 nM. In assay [2], this compound came in with a Ki of 26 nM.
The like results for `CN1C2CC[C@@H]1C[C@H](c1ccccc1)C2CC/C=C/C(=O)O` (stereo partly drawn) were, in that order, 203 nM and 20 nM.
Take `COC(=O)CCC1C2CC[C@H](C[C@@H]1c1ccccc1)N2C` (stereo partly drawn): in assay [2], the Ki was 23 nM. The same compound came in with an IC50 in assay [3] of 166 nM.
Turning to `COC(=O)[C@@H]1C2CC[C@H](C[C@@H]1c1ccccc1)N2C`, the Ki in assay [4] amounted to 314 nM; in assay [2], 33 nM. For the same compound, the IC50 in assay [3] is 373 nM.
`COC(=O)/C=C/C1C2CC[C@H](C[C@@H]1c1ccccc1)N2C` (stereo partly drawn) yielded a Ki in assay [2] of 22 nM. Further, the midpoint of inhibition in assay [3], the IC50, lay at 123 nM.
The like results for `CN1C2CC[C@@H]1C[C@H](c1ccccc1)C2CCCO` (stereo partly drawn) were, in that order, 11 nM and 64 nM.
